{"source": "paper PMC11181322", "about": "“Copper(II) Complexes with Isomeric Morpholine-Substituted 2-Formylpyridine Thiosemicarbazone Hybrids as Potential Anticancer Drugs Inhibiting Both Ribonucleotide Reductase and Tubulin Polymerization: The Morpholine Position Matters” (Journal of Medicinal Chemistry, 2024)", "key": {"tubulin": {"tested_on": "tubulin", "assay": "Inhibition of [3H]colchicine binding to tubulin", "settings": "for inhibition of colchicine binding % inhibition ± SD: tubulin 0.5 μM, colchicine 5 μM"}, "MES-SA cells": {"tested_on": "MES-SA cells", "assay": "dNTP pools in MES-SA cell extracts", "format": "cell-based, human", "settings": "at both concentrations (10 and 25 μM), 24 h", "excerpt": "RNR reduces NDPs to their corresponding deoxy derivatives (dNDPs), which are further converted into dNTPs.[77] Therefore, we investigated the effect of the most toxic proligand H2L^6 and its copper(II) complex 6 on cellular dNTP levels, using Triapine as a control. […] Triapine also elicits a dATP pool decrease while increasing the pools of the three other dNTP species. Decreasing the dATP pool to zero can give rise to the observed cytotoxic effect upon treatment with Triapine. Complex 6 seems to affect dNTP pools by a more complex mechanism, which is nevertheless consistent with R2 inhibition.[79]\nFigure 8 Measurement of dNTP pools in MES-SA cell extracts following a 24 h treatment with proligand H2L^6, complex 6, or Triapine at the indicated concentrations. Three independent experiments were performed; error bars represent standard error; stars indicate significant changes compared to the respective control (Ctrl) at p < 0.05.\nAfter a 24 h incubation with or without drugs, MES-SA cells were washed twice with PBS and trypsinized for 5 min. […] The pellet containing dNTPs was redissolved in 50 μL of RNase-free water and stored at −20 °C. dNTP-containing samples were measured by a nucleotide incorporation-based fluorescent method.[97] We used a long synthetic oligonucleotide (197 nt) as a template, which contains a dNTP-detection site, the sole complementary base to that of the dNTP to be quantified directly adjacent to the annealed primer. […] In addition to the limiting amount of dNTP to be quantified, the polymerization reaction mix contained the other three dNTPs in large excess. The double-stranded DNA product is detected by the EvaGreen Dye. The 2X master mix for the DNA synthesis reaction contained the following: 0.275 μM primer (Merck KGaA, Darmstadt, Germany), 0.25 μM template (IDT, Coralville, Iowa, USA), 50 μM dNTP mix (excluding the dNTP to be measured in the given experiment to limit its source to the sample), and 1.25 μM EvaGreen (Biotium). […] Fluorescence amplitude data were extracted from the Bio-Rad CFX Maestro Software and analyzed using Excel and Origin. […]"}}}
{"smiles": "Cc1cc(NC(=NN=Cc2cccc(CN3CCOCC3)n2)[S][Cu][Cl])cc(C)c1O", "note": "[complex 6, [Cu(HL^6)Cl]·H2O]", "values": [{"measurement": "inhibition of colchicine binding % inhibition ± SD", "setting": "tubulin; 5 μM inhibitor", "result": "5.8 ± 5", "unit": "%"}, {"measurement": "inhibition of colchicine binding % inhibition ± SD", "setting": "tubulin; 25 μM inhibitor", "result": "33 ± 2", "unit": "%"}, {"measurement": "fold less potent than CA-4 in inhibiting [3H]colchicine binding", "setting": "tubulin; at the 5 μM concentration", "result": 17, "unit": "fold"}, {"measurement": "dATP and dTTP levels", "setting": "MES-SA cells", "result": "marked decrease"}]}
